Read-outs that look alike come from different tables or passages of the source. Numbered stars: 1 amine (or outer) side, 2 acyl side, 3 side chain; on linkers, the order of the positions; unused ones are H or OH. Side chains are listed from the residue outwards. Ends that are not written are not given here. Peptide text beside a SMILES is read from it. * marks the point of attachment. X1 = C[C@H](NC(=O)[C@@H]1CCCN1C(=O)[C@@H](N)CSC1CC(=O)N(CCC(=O)*)C1=O)C(=O)N[C@@H](CCCCN)C(=O)O; C18 diacid = O=C(O)CCCCCCCCCCCCCCCCC(=O)*; γGlu = O=C(O)[C@H](CCC(=O)[*:2])N[*:1]; Fumaroyl = O=C(O)/C=C/C(=O)*; Suc = O=C(CCC(=O)[*:2])[*:1]; Lauroyl = CCCCCCCCCCCC(=O)*; AEEA = NCCOCCOCC(=O)O
How the values were obtained:
dog ETB receptor = target: T1, dog ETB receptor (Canis lupus familiaris, UniProt P56497); test: Determination of EC50s of polypeptides against dog ETB receptor; type: cell-based; conditions: Table 7, dog ETB receptor; for EC50: read-out: DETAR Agonist Activity EC50
T1 construct: expressed in transfected cells
T1 sequence (P56497 27-442): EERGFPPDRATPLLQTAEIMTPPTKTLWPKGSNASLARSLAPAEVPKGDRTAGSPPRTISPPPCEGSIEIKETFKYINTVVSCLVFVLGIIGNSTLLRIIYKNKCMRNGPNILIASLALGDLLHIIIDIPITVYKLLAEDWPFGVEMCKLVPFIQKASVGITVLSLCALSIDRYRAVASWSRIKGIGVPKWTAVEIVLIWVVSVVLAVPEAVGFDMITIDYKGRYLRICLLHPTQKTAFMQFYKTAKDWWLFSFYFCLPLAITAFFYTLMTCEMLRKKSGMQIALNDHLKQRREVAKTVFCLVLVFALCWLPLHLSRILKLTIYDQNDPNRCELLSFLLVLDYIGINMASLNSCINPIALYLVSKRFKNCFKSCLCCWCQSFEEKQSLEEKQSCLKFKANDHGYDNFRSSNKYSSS
Method: (§1) 293T-17 cells were seeded at a density of 650,000 cells per well in a 6-well plate and cultured overnight in an incubator at 37°C and 5% CO2. Afterward, the cells were transfected with an expression vector, PCDNA3.1-hETB which contained a human ETB receptor gene, at a plasmid concentration of 2.5 µg per well. The cells were further cultured for 48 hours, and green fluorescence expression was observed under a fluorescence microscope. The cells were then digested with trypsin and counted. The activity of compounds on the human ETB receptor was determined with the IP-One Gq kit from Cisbio Bioassays. The cells were suspended in Stim Buffer provided in the kit and the cell suspension was added to a 96-well detection plate at 7 µL cell suspension (containing 30,000 cells) per well. The polypeptides to be tested (prepared according to the Preparation Example of the invention) were diluted in Stim B to obtain a gradient of 11 concentration points. For each concentration point, the polypeptides to be tested were dissolved in Stim B to be at a concentration of 2×, and added at 7 µL to the test cells, while 7 µL of PBS solution was added to the cells in the negative control wells. The plate was sealed and incubated at 37°C for 1 hour in a cell culture incubator. Detection wells, positive control wells containing human endothelin ET1 (ET1: […] (C1-C15,C3-C11)), and PBS control wells were each added with 3 µL of IP1 d2 working solution and 3 µL of IP1 Tb cryptotate Antibody working solution. The plate was then sealed and incubated in the dark at room temperature (25°C±5°C) for 1 hour. The plate seal was removed, and the […] at 665 nm and 620 nm was measured with an ID5 microplate reader. The ratio of the acceptor emission signal to the donor emission signal, i.e., (signal at 665 nm/signal at 620 nm)×10^4, was calculated for each well. With F representing the average value of values of signal at 665 nm/signal at 620 nm for the test samples at various concentrations, a scatterplot was plotted, where the abscissa represented the F value, and the ordinate represented the logarithmic value of the peptide concentration. A curve was fitted with an appropriate method to calculate EC50 values of the polypeptides against the human ETB receptor. Another method was provided for fitting a curve where activation rate of the test polypeptides at each concentration relative to the positive control sample human endothelin ET1 was calculated first with the method in Example 1, and a scatterplot was plotted, where the abscissa represented the activation rate, and the ordinate represented the logarithmic value of the polypeptide concentration. A curve was fitted with an appropriate method to calculate the EC50 values of the polypeptides against the human ETB receptor.
The process is the same as that in Example 3, except that the transfected plasmid was expression vector PCDNA3.1-DETB which contained a dog ETB receptor gene. EC50 values of the polypeptide against the dog ETB receptor were calculated (see Figures 8-10). The sequence of the dog endothelin receptor B (NCBI accession number: NM_001010943.2).

human ETB receptor = target: T2, human ETB receptor (Homo sapiens, UniProt P24530); test: Determination of EC50 of polypeptides against human ETB receptor (IP-One Gq kit); type: cell-based
T2 construct: expressed in transfected cells; host or cells: 293T-17 cells, transient transfection
T2 sequence (P24530 27-442): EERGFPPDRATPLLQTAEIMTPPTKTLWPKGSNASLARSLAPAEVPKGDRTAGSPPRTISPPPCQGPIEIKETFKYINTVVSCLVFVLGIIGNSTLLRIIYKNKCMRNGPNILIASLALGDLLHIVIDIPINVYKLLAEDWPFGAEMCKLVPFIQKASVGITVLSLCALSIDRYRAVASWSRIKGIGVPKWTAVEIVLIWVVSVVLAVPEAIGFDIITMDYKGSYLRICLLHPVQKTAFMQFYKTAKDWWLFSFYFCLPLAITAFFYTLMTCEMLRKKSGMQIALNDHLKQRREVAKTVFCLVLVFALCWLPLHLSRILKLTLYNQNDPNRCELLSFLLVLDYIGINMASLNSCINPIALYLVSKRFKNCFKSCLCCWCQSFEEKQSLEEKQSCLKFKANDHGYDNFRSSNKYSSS
Method: as §1

[1] = Determination of half-lives of polypeptides (plasma, LC-MS); conditions: for half-life: C57 BL/6, mouse, plasma, iv; for AUClast 0-30 min: C57 BL/6 mice, i.v., dosage per compound 0.48, 0.96 or 1 mpk
[2] = 293T-17 cells transfected with PCDNA3.1-hETB, read-out: hETBR agonist activity EC50/nM

Compound: Fum-DEEEVYFAHOrnDIIW [BX-59]
- DETAR Agonist Activity, % (dog ETB receptor; @10nM): 14.7%@10n M
- DETAR Agonist Activity, % (dog ETB receptor; @100nM): 117.46%@1 00nM

Compound: CCCCCCCCCCCC(=O)N[C@@H](CCC(=O)NCCOCCOCC(=O)NCCCC[C@H](NC(=O)[C@H](Cc1c[nH]cn1)NC(=O)[C@H](C)NC(=O)[C@H](Cc1ccccc1)NC(=O)[C@H](Cc1ccc(O)cc1)NC(=O)[C@@H](NC(=O)[C@H](C)NC(=O)[C@H](CCC(=O)O)NC(=O)[C@H](CCC(=O)O)NC(=O)[C@H](CC(=O)O)NC(=O)/C=C/C(=O)O)C(C)C)C(=O)N[C@@H](CC(=O)O)C(=O)N[C@H](C(=O)N[C@H](C(=O)N[C@@H](Cc1c[nH]c2ccccc12)C(=O)O)[C@@H](C)CC)C(C)C)C(=O)O [BX229-Na] (Fumaroyl-DEEAVYFAHK([AEEA-γGlu-Lauroyl])DVIW-OH)
- EC50 (human ETB receptor; [2]): 16.7 nM
- EC50 (dog ETB receptor): 17.9 nM

Compound: CCCCCCCCCCCC(=O)N[C@@H](CCC(=O)NCCOCCOCC(=O)NCCCC[C@H](NC(=O)[C@H](Cc1c[nH]cn1)NC(=O)[C@H](C)NC(=O)[C@H](Cc1ccccc1)NC(=O)[C@H](Cc1ccc(O)cc1)NC(=O)[C@@H](NC(=O)[C@H](C)NC(=O)[C@H](CCC(=O)O)NC(=O)[C@H](CCC(=O)O)NC(=O)[C@H](CC(=O)O)NC(=O)/C=C/C(=O)O)C(C)C)C(=O)N[C@@H](CC(=O)O)C(=O)N[C@H](C(=O)N[C@H](C(=O)N[C@@H](Cc1c[nH]c2ccccc12)C(=O)O)[C@@H](C)CC)[C@@H](C)CC)C(=O)O [BX-225] (Fumaroyl-DEEAVYFAHK([AEEA-γGlu-Lauroyl])DIIW-OH)
- half-life [1]: 37 min
- AUClast 0-30 min [1]: 4981 ng·h/mL

Compound: CC[C@H](C)[C@H](NC(=O)[C@H](CC(=O)O)NC(=O)[C@H](CCCCNC(=O)COCCOCCNC(=O)CCN1C(=O)CC(SC[C@H](N)C(=O)N2CCC[C@H]2C(=O)N[C@@H](C)C(=O)N[C@@H](CCCCN)C(=O)O)C1=O)NC(=O)[C@H](Cc1c[nH]cn1)NC(=O)[C@H](C)NC(=O)[C@H](Cc1ccccc1)NC(=O)[C@H](Cc1ccc(O)cc1)NC(=O)[C@@H](NC(=O)[C@H](C)NC(=O)[C@H](CCC(=O)O)NC(=O)[C@H](CCC(=O)O)NC(=O)[C@H](CC(=O)O)NC(=O)/C=C/C(=O)O)C(C)C)C(=O)N[C@H](C(=O)N[C@@H](Cc1c[nH]c2ccccc12)C(=O)O)[C@@H](C)CC (stereo partly shown) [BX-95] (Fumaroyl-DEEAVYFAHK([AEEA-X1])DIIW-OH)
- EC50 (human ETB receptor; [2]): 45.6 nM
- EC50 (dog ETB receptor): 69.1 nM

Compound: Suc-DE cyclo(CEEC)YFAHKDIIW (Suc-DECEECYFAHKDIIW; not fully specified (bridges); printed as Suc-DE cyclo(CEEC)YFAHKDIIW; also: cyclo(CEEC) in N-terminal extension, bond type not given here) [BX-57]
- DETAR Agonist Activity, % (dog ETB receptor; @100nM): 49.81%

Compound: Fum-DEEEVYFAHKDIIW (Fumaroyl-DEEEVYFAHKDIIW) [BX-52]
- DETAR Agonist Activity, % (dog ETB receptor; @10nM): 76.82%@10 nM
- DETAR Agonist Activity, % (dog ETB receptor; @100nM): 104.49%@1 00nM

Compound: CC[C@H](C)[C@H](NC(=O)[C@H](CC(=O)O)NC(=O)[C@H](CC(C)C)NC(=O)[C@H](Cc1c[nH]cn1)NC(=O)[C@H](C)NC(=O)[C@H](Cc1ccccc1)NC(=O)[C@H](Cc1ccc(O)cc1)NC(=O)[C@@H](NC(=O)[C@H](C)NC(=O)[C@H](CCC(=O)O)NC(=O)[C@H](CCC(=O)O)NC(=O)[C@H](CC(=O)O)NC(=O)CCC(=O)O)C(C)C)C(=O)N[C@H](C(=O)N[C@@H](Cc1c[nH]c2ccccc12)C(=O)O)[C@@H](C)CC [IRL1620, reference compound] (Suc-DEEAVYFAHLDIIW-OH)
- EC50 (human ETB receptor): 1.33 nM
- half-life [1]: < 2.6 min
- AUClast 0-30 min [1]: 130 ng·h/mL

Compound: CC[C@H](C)[C@H](NC(=O)[C@H](CC(=O)O)NC(=O)[C@H](CCCCNC(=O)COCCOCCNC(=O)COCCOCCNC(=O)CC[C@H](NC(=O)CCCCCCCCCCCCCCCCC(=O)O)C(=O)O)NC(=O)[C@H](Cc1c[nH]cn1)NC(=O)[C@H](C)NC(=O)[C@H](Cc1ccccc1)NC(=O)[C@H](Cc1ccc(O)cc1)NC(=O)[C@@H](NC(=O)[C@H](C)NC(=O)[C@H](CCC(=O)O)NC(=O)[C@H](CCC(=O)O)NC(=O)[C@H](CC(=O)O)NC(=O)/C=C/C(=O)O)C(C)C)C(=O)N[C@H](C(=O)N[C@@H](Cc1c[nH]c2ccccc12)C(=O)O)[C@@H](C)CC [BX-34] (Fumaroyl-DEEAVYFAHK([AEEA-AEEA-γGlu-C18 diacid])DIIW-OH)
- half-life [1]: 63 min
- AUClast 0-30 min [1]: 7736 ng·h/mL

From patent publication EP4702986A1, “POLYPEPTIDE AND USE THEREOF” (Biocells (Beijing) Biotech Co., Ltd., priority 2023, dated 2024)
